Patent publication US20060173015A1, “Cyclohexyldiamines as selective alpha 1a/1d adrenoreceptor antagonists for the treatment of benign prostatic hypertrophy and lower urinary tract symptoms” (priority 2004, published 2006)

Tests used:
α1a-AR = target: T1, α1a-AR (Homo sapiens, UniProt P35348); test: α1-Adrenergic receptor radio-ligand (125I-HEAT) binding assay, α1a subtype; conditions: COS-7 cell membranes, 125I-HEAT
T1 construct: expressed in transfected cells; host or cells: COS-7
T1 sequence (P35348 1-466): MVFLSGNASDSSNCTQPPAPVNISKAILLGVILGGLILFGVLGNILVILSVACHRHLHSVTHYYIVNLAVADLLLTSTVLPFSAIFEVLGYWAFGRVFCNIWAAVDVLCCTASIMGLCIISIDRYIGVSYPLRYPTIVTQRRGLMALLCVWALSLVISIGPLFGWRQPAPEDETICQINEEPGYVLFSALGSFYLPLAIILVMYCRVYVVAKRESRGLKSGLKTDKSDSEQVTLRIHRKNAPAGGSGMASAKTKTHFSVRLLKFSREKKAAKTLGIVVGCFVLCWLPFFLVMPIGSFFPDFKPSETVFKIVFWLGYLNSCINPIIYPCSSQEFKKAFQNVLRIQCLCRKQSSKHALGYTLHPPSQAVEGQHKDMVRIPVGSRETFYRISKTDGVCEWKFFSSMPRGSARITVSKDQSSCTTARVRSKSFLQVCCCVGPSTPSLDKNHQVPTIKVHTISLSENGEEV
Procedure, shortened: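 Membranes from COS-7 cells transfected with the α1a-AR were incubated with 50 pM final ¹²⁵I-HEAT and test compound (1 pM–10 μM final, half-log steps) in Tris/EDTA/NaCl buffer pH 7.4 for 1 hr at rt. Bound radioactivity was counted after GF/C filtration, in triplicate.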

IUP = test: Phenylephrine-induced IUP in a conscious canine model; assay type: in vivo; conditions: conscious dog
Procedure: In-Vivo Evaluation of α1-Adrenergic Antagonists on IUP and MAP in a Conscious Canine Model
An anesthetized dog was fitted with a balloon catheter for the measurement of changes in prostatic IUP and with a number of implanted pressure transducers and telemetry transmitters for measuring MAP.
The pressor effects of challenge doses […] of the α-adrenergic agonist phenylephrine upon IUP and MAP were measured before and at various time points after a single dose (p.o.) of an α-adrenergic antagonist test compound (Compound 69) of the present invention.
Each treatment group was dosed with a test compound (0.1, 0.3, 1.0 and 3.0 mg/kg) in four separate experiments. The first challenge dose of phenylephrine for each treatment group was administered at the time of the test compound dose (time 0). The value for the first challenge dose represents an average of up to three challenge doses administered prior to time 0.
Subsequent challenge doses for all treatment groups were administered at 30 min. then one hour and two hours after time 0.
The final challenge doses for the 0.1 and 0.3 mg/kg groups were administered at four and six hours after time 0. The final challenge doses for the 1.0 mg/kg group were administered at four, six and eight hours after time 0. The final challenge doses for the 3.0 mg/kg group were administered at four, six, 12 and 24 hours after time 0.
A 7F Fogarty balloon catheter lubricated with a water-soluble jelly was inserted into the urethra and advanced into the bladder (approximately 40 cm). The balloon was inflated with approximately water (0.2 mL). The catheter was slowly withdrawn from the bladder to just past the point of first resistance from the bladder neck in order to position the balloon within the prostatic urethra. The balloon was then inflated to approximately 0.7 mL. The balloon port of the catheter was connected to a Gould Statham pressure transducer, the output of which was connected to the pressure input of a Physio Control VSM1 Patient Monitor.
A test compound was administered via the cephalic or saphenous vein using an appropriately sized IV catheter (Surflo, Terumo Medical Corporation or equivalent).
Prior to test compound administration, IUP and MAP responses to an individualized dose of phenylephrine (either 10 or 15 μg/kg IV, depending on the individual animal's response) was repeated 2 to 3 times to establish a baseline response. After test compound administration, the individualized phenylephrine dose was administered to each animal at predetermined intervals over a period of up to 24 hours.
Data for phenylephrine-induced changes in IUP and MAP were tabulated for each treatment group and each experiment. A mean value and standard deviation for the phenylephrine-induced changes to the effect of a test compound on IUP and MAP at each dose was calculated and tabulated for each treatment group over the length of the study.

COc1ccc(S(=O)(=O)N[C@H]2CC[C@@H](N3CCN(c4ccccc4OCC(F)(F)F)CC3)CC2)cc1OC [Cpd 69, 3,4-Dimethoxy-N-cis-(4-{4-[2-(2,2,2-trifluoro-ethoxy)-phenyl]-piperazin-1-yl}-cyclohexyl)-benzenesulfonamide]
Ki (α1a-AR): 1.2 nM | IUP, normalized % of baseline (mean) (IUP; 0.1 mg/kg p.o., 0 hrs (baseline)): 100% | IUP, normalized % of baseline (mean) (IUP; 0.1 mg/kg p.o., 0.5 hrs after dose): 87.3% | IUP, normalized % of baseline (mean) (IUP; 0.1 mg/kg p.o., 1 hrs after dose): 78.3% | IUP, normalized % of baseline (mean) (IUP; 0.1 mg/kg p.o., 2 hrs after dose): 78.8% | IUP, normalized % of baseline (mean) (IUP; 0.1 mg/kg p.o., 4 hrs after dose): 82.5% | IUP, normalized % of baseline (mean) (IUP; 0.1 mg/kg p.o., 6 hrs after dose): 86.5% | IUP, normalized % of baseline (mean) (IUP; 0.3 mg/kg p.o., 0 hrs (baseline)): 100% | IUP, normalized % of baseline (mean) (IUP; 0.3 mg/kg p.o., 0.5 hrs after dose): 63.0% | IUP, normalized % of baseline (mean) (IUP; 0.3 mg/kg p.o., 1 hrs after dose): 47.0% | IUP, normalized % of baseline (mean) (IUP; 0.3 mg/kg p.o., 2 hrs after dose): 51.1% | IUP, normalized % of baseline (mean) (IUP; 0.3 mg/kg p.o., 4 hrs after dose): 70.0% | IUP, normalized % of baseline (mean) (IUP; 0.3 mg/kg p.o., 6 hrs after dose): 84.4% | IUP, normalized % of baseline (mean) (IUP; 1.0 mg/kg p.o., 0 hrs (baseline)): 100% | IUP, normalized % of baseline (mean) (IUP; 1.0 mg/kg p.o., 0.5 hrs after dose): 32.9% | IUP, normalized % of baseline (mean) (IUP; 1.0 mg/kg p.o., 1 hrs after dose): 20.6% | IUP, normalized % of baseline (mean) (IUP; 1.0 mg/kg p.o., 2 hrs after dose): 28.6% | IUP, normalized % of baseline (mean) (IUP; 1.0 mg/kg p.o., 4 hrs after dose): 49.0% | IUP, normalized % of baseline (mean) (IUP; 1.0 mg/kg p.o., 6 hrs after dose): 66.3% | IUP, normalized % of baseline (mean) (IUP; 1.0 mg/kg p.o., 8 hrs after dose): 70.4% | IUP, normalized % of baseline (mean) (IUP; 3.0 mg/kg p.o., 0 hrs (baseline)): 100% | IUP, normalized % of baseline (mean) (IUP; 3.0 mg/kg p.o., 0.5 hrs after dose): 5.2% | IUP, normalized % of baseline (mean) (IUP; 3.0 mg/kg p.o., 1 hrs after dose): 2.2% | IUP, normalized % of baseline (mean) (IUP; 3.0 mg/kg p.o., 2 hrs after dose): 7.0% | IUP, normalized % of baseline (mean) (IUP; 3.0 mg/kg p.o., 4 hrs after dose): 17.1% | IUP, normalized % of baseline (mean) (IUP; 3.0 mg/kg p.o., 6 hrs after dose): 31.6% | IUP, normalized % of baseline (mean) (IUP; 3.0 mg/kg p.o., 12 hrs after dose): 67.7% | IUP, normalized % of baseline (mean) (IUP; 3.0 mg/kg p.o., 24 hrs after dose): 93.8%
